Source: ChEMBL document CHEMBL3988442, “University of Dundee, Small-Polar-MMV Screening Library” (2021)

Assays:
[1] = microbe, parasite or virus in culture; conditions: Mycobacterium tuberculosis, 96 h, read-out: pIC50 (converted)
[2] = microbe, parasite or virus in culture; conditions: Mycobacterium tuberculosis, 72 h, read-out: pIC50 (converted)

| Structure (SMILES) | IC50 [1] [µM] | IC50 [2] [µM] |
| --- | --- | --- |
| Cc1ccc(NC2CCN(C(=O)C(C)n3cncn3)CC2)nn1 (stereo not given) | > 50.1 | > 50.1 |
| CCOc1ccc(Cn2nc(COC)oc2=O)nc1 | 19.1 | 246 |
| CN(C)c1ncnc2c1CCN(c1cccc(F)c1)CC2 | > 50.1 | > 50.1 |
| OCCCn1nnc(-c2ccccc2)n1 | 120 | 158 |
| CCc1ccc(S(=O)(=O)N2CC[C@@H](N)C2)cc1CC | > 501 | > 501 |
| CC(C)C(O)CCNC(=O)Cc1cccc(O)c1 (stereo not given) | > 501 | 430 |
| CCCc1cc(C(=O)NCCCC(=O)N2Cc3ccccc3C2)[nH]n1 | > 50.1 | > 50.1 |
| Cc1[nH]c(=O)[nH]c(=O)c1CN1CCCC(CCc2ccccc2F)C1 (stereo not given) | > 50.1 | > 50.1 |
| CN(CCCN)c1ccccc1F | 129 | 86.1 |
| CCOc1cc(NCc2ncc(C)o2)ncn1 | > 501 | 153 |
| NS(=O)(=O)c1cccc(S(=O)(=O)c2ccc(Cl)cc2)c1 | 283 | 71.4 |
| CCNC1=NN=C(c2ccc3c(c2)OCCCO3)CS1 | > 501 | 274 |
| COc1ccc(CC2CCN2)cc1 (stereo not given) | 250 | 212 |
| NCCC1CN(Cc2cc3ccccc3s2)CCO1 (stereo not given) | 332 | 308 |
| O=c1ccc(Br)cn1Cc1noc(C2CC2)n1 | 204 | 78.4 |
| CCCc1nc(N(C)Cc2ccco2)c2c(n1)c(C)nn2CC | 12 | 25.2 |
| COCCN(C)CCNC(=O)c1cc2ccccc2[nH]1 | > 501 | > 501 |
| Cn1cnc2c1CCN(c1ccnc(-c3ccccc3)n1)C2 | 38.1 | 15.6 |
| O=C(NCc1ccco1)Nc1nc2c(s1)COCC2 | > 501 | > 501 |
| CCn1c(SCC(N)=O)nnc1-c1cc(Br)cs1 | 249 | 254 |
| O=C(CCSc1ccc(F)cc1)N1CCN(c2cnccn2)CC1 | > 50.1 | > 50.1 |
| OCC1CCN(CCc2ccccc2)C1 (stereo not given) | 243 | 393 |
| COc1cccc(S(=O)(=O)CCN2CCC(O)CC2)c1 | > 501 | 397 |
| CN1CCC(N(C)CCC(=O)N2CCC(CCc3ccccc3)CC2)C1 (stereo not given) | 35.3 | 41.5 |
| COc1ccc(Cl)c(S(=O)(=O)NCCC(C)N)c1 (stereo not given) | 187 | 116 |
| CCC(=O)Nc1nnc2n(Cc3cccc(OC)c3)[nH]c(C)c1-2 | > 50.1 | > 50.1 |
| COC(=O)COc1ccc2c(c1)OCO2 | > 501 | 140 |

| Structure (SMILES) | IC50 [1] [µM] | IC50 [2] [µM] |
| --- | --- | --- |
| Brc1cncc(NCc2ncc[nH]2)c1 | > 501 | 475 |
| COCCN1CCC(CNC(=O)N2CCC(C)CC2)C1 (stereo not given) | 83.9 | 75.1 |
| CNC(=O)NCCc1csc2ccccc12 | > 50.1 | > 50.1 |
| Cc1ccc(-n2nnnc2NCC2CCCO2)cc1 (stereo not given) | 119 | 113 |
| Cc1ccc2nnc(C(=O)NCC3CCCC3)nc2c1 | 13.4 | 10.4 |
| NCc1cccc2cc[nH]c12 | 261 | 245 |
| COCc1ccc(C(=O)NCc2cccc(F)c2)o1 | 35.8 | 59.4 |
| OC(CN1CCn2ccnc2C1)c1ccc(F)cc1 (stereo not given) | > 501 | 173 |
| COc1cccc(-n2nnc(C(=O)NC3CC3)c2C)c1 | 209 | 232 |
| Fc1ccccc1-c1nc(CNCCn2cccn2)cs1 | > 50.1 | > 50.1 |
| COc1cccc(CNc2nc(C(C)C)nn2C)n1 | > 501 | 315 |
| COC1CCN(C(=O)Cc2ccc(N(C)C)cc2)C1 (stereo not given) | 122 | 183 |
| CCCc1nc(N2CCCCCC2)c2c(n1)c(C)nn2CC | 43.2 | 23.6 |
| Cc1nsc(C(=O)NCCc2ccc(F)cc2)n1 | 12.5 | 1.84 |
| c1snnc1CNCC1COC2(CCCCC2)O1 (stereo not given) | 268 | > 501 |
| CN(c1ccc(F)cc1)S(=O)(=O)N1CCCCC1 | 267 | 204 |
| CC(CNC(=O)c1cnccn1)Oc1cccc(Br)c1 (stereo not given) | > 50.1 | 0.211 |
| CC(=O)NCCCNCc1cccc(C#N)c1 | > 501 | > 501 |
| CS(=O)(=O)Cc1ccccc1NCc1ccsc1 | > 501 | 220 |
| COCc1cccc(C(=O)N2CCCC2)c1 | > 50.1 | 16.3 |
| CN(C)CC(=O)N1CCC2(CCc3cc(-c4cccnc4)ccc32)CC1 | > 50.1 | > 50.1 |
| Cc1cnn(CCNCc2cccc3c2OCO3)c1 | > 501 | 258 |
| COc1cccc(Nc2ccc(N)nc2)c1 | 241 | 128 |
| Cc1ccc(NC(=O)NCCS(=O)(=O)N(C)C)cc1Cl | 401 | 205 |
| Cc1cccc(N2CCCC(N)C2)n1 (stereo not given) | 150 | 119 |
| NCc1cnn(-c2ccc(Br)cc2)c1 | 196 | 147 |
| CCc1cn[nH]c1C1CCN(c2cc(C)c3cccc(OC)c3n2)CC1 | > 50.1 | 22.2 |

| Structure (SMILES) | IC50 [1] [µM] | IC50 [2] [µM] |
| --- | --- | --- |
| CCCN(CCn1c(=O)oc2ccccc21)CC1CC1 | > 50.1 | > 50.1 |
| CC(C)c1cccc(NC(=O)CN2CCC(O)CC2)c1 | 359 | 116 |
| O=C1CC2(CCN(Cc3cccs3)C2)CN1c1cccc(F)c1 (stereo not given) | 18.6 | 1.43 |
| CCn1ncnc1CN1CC(Oc2ccccc2)C1 | > 501 | 151 |
| COc1ccnc(N2CCCN(c3nc(C4CC4)ns3)CC2)n1 | > 50.1 | > 50.1 |
| Cc1ccc2c(c1)OC(C)CN2C(=O)c1ccccn1 (stereo not given) | > 501 | > 501 |
| Fc1ccc(NCC2CCC3(CC2)OCCO3)nc1 | 205 | 264 |
| COc1ccc(CN(C)C(=O)C2CC2)cc1F | 255 | 211 |
| CNS(=O)(=O)c1ccc(NCc2ccco2)cc1OC | 245 | 437 |
| CCc1cc2c(N3CCCC(c4ccn[nH]4)C3)ncnc2s1 (stereo not given) | 12.6 | 9.09 |
| NC1CCCN(S(=O)(=O)C=Cc2cccc(Cl)c2)C1 (stereo not given) | 257 | 216 |
| COCCNc1ccc(C#N)cc1 | 280 | > 501 |
| CN(C)CCN(C)c1ccc(-c2nc(COc3ccccc3)no2)cn1 | 14.4 | 48.4 |
| CS(=O)(=O)N1CCC(COCc2ccccc2)C1 (stereo not given) | 165 | 301 |
| CN1N=C(C(=O)NCc2csc(Br)c2)CCC1=O | 51 | 147 |
| Cc1cc(C(=O)N2CCC(C(N)=O)C2)cc(Cl)c1Br (stereo not given) | 262 | 180 |
| O=C(CCN1CCCC1CO)NCc1ccccc1Cl (stereo not given) | > 501 | 460 |
| NCCc1cnn(-c2ccccc2)c1 | 250 | 230 |
| COc1cc(Oc2ccc(C(F)(F)F)cn2)ccc1CN1CCCC1 | 16.6 | 13.9 |
| COCCNC(=O)Nc1ccc(OC(F)F)c(F)c1 | 253 | 273 |
| CC(NC(=O)CCNC(=O)c1ccco1)c1cccs1 (stereo not given) | > 501 | > 501 |
| COc1cc(F)cc(NCC(=O)NCc2ccco2)c1 | 32.7 | 35 |
| Cc1ccc(C(O)c2cccnc2)cc1 (stereo not given) | > 501 | > 501 |
| O=C(Cn1cnnn1)Nc1ccc(SC(F)F)cc1 | 290 | 180 |
| CN(C)c1ncccc1CNS(=O)(=O)c1ccccc1 | > 501 | > 501 |
| Cc1cc(NCCC(=O)NC(C)C)nc(-c2ccncc2)n1 | > 50.1 | > 50.1 |
| O=C(CNC1CC1)NCCc1ccc(F)cc1 | 63.6 | 31.5 |

| Structure (SMILES) | IC50 [1] [µM] | IC50 [2] [µM] |
| --- | --- | --- |
| COCCCNC(=O)c1coc(Br)c1 | 116 | 118 |
| O=C(COc1ccccc1Cl)NCC(=O)c1ccco1 | > 501 | 342 |
| O=C(NCCOc1ncccc1Cl)c1cc(Cl)c[nH]1 | 287 | 188 |
| Cn1nnc(NCc2ccc(-c3ccc(Br)cc3)o2)n1 | 11.9 | 25.3 |
| O=C(CSc1cnn[nH]1)OCc1ccccc1 | > 501 | 67.9 |
| CNC(=O)[C@@H](C)Nc1ccc(C(F)(F)F)cn1 | > 501 | > 501 |
| CC(C)S(=O)(=O)CCCn1nnc(-c2ccsc2)n1 | 94.9 | 56.7 |
| CN1CCC(CNC(=O)c2cccc(C(F)(F)F)c2)c2ccccc21 (stereo not given) | > 50.1 | 45.5 |
| CC(=O)c1c(C)[nH]c(C(=O)OCC(=O)N(C)C)c1C | 286 | 279 |
| N#Cc1ccc(S(=O)(=O)NCCN)cc1C(F)(F)F | 223 | 160 |
| Cc1cc(Cl)ccc1NC(=O)CSc1n[nH]c(N)n1 | > 501 | > 501 |
| CCCc1ccc(N2CCN(Cc3nc4ccccc4n3C)CC2)cc1 | > 50.1 | 26 |
| CC(C)CC(C)N(C)Cc1nnc(-c2ccco2)o1 (stereo not given) | 14.9 | 11.7 |
| CCCc1nn(Cc2csc(C(C)C)n2)c(=O)o1 | 20.4 | 3.08 |
| COc1c(C)cc(Br)cc1C(=O)Nc1nnn(C)n1 | 209 | 206 |
| COc1cc(N2CCNCC2)ccc1F | > 501 | 281 |
| CC(C)n1cc(Br)cc1C(=O)NC1=NCCS1 | > 501 | 177 |
| CCNC(=O)NC(c1ccc2c(c1)OCCO2)C(C)C (stereo not given) | > 501 | > 501 |
| CN(CCC#N)C(=O)COC(=O)c1ccccc1Br | > 501 | 139 |
| Cc1nnsc1CN1C[C@H]2CC[C@@H]1CN(Cc1ccccc1)C2 | 42.5 | 13.8 |
| CC(C)COCC(O)Cn1nnc(-c2ccco2)n1 (stereo not given) | 12.9 | 88.9 |
| CN1N=C(C(=O)NCc2ccc(Cl)cc2)CCC1=O | 38.8 | 26.9 |
| CCC(N)C(=O)N1CCN(c2ccc(F)cc2Cl)CC1 (stereo not given) | 266 | 322 |
| Fc1ccc(Cn2ccnn2)c(Cl)c1 | > 501 | > 501 |
